Read-outs that look alike come from different tables or passages of the source.
Experiments:
USP9X [1] = target: T1, USP9X (Homo sapiens (Human), UniProt Q93008); assay: Steady-state enzyme inhibition kinetics of USP9X; type: biochemical
Source text: The data were fit to a general model for enzyme inhibition (FIG. 1E) so the values of the parameters determined from the assays specified the mode of inhibition. For example, in the case of α=1 and β=0, it corresponded to purely non-competitive inhibition. For α=infinity and p=1, it corresponded to purely competitive inhibition. The values of all the parameters, KS, KI, kcat, α, and β could be determined from the steady state measurements. The enzyme reactions were set up as described in the Inhibiting the catalytic activity of USP9X section. The concentration of the substrate ubqiutin-rhodamine110 was varied. The initial rates of the reactions were determined at several concentrations of the inhibitor Compound 2A. In order to determine the values of the parameters KS and kcat, the reaction rates in the absence of the inhibitor Compound 2A, the initial reaction rate data were fit to the standard Michaelis-Menten equation v=Vmax [S]/(Km+[S]). The values of α and β could then be determined by fitting the initial rate data of the enzyme reaction at various concentrations of Compound 2A to a modified version of the Michaelis-Menten equation, designating both Vmax and KS apparent to distinguish the apparent values of the parameters determined from these plots to the true values for these parameters determined from the steady state kinetics in the absence of Compound 2A. The values of α and β could be determined from the variation of the slopes and intercepts of the series of double reciprocal plots of 1/v versus 1/[S] for each concentration of Compound 2A. […] The two values determined for KI were from the two different plots.
The two values for KI were determined by two different methods for determining this parameter from the kinetic data: 1 represented a value determined from the slope of the 1/A intercept vs 1/[I] plot; 2 represented a value determined from the y intercept of the 1/A slope vs 1/[I] plot. […] Only the values of the parameters varied for the compounds.

Mcl-1 = assay: Western blot of Mcl-1 in U937 cells; type: cell-based
Experimental: After 24 hours treatment with Compound 7A, U937 cells were collected by centrifugation and whole cell lysates were prepared. These lysates were analyzed by Western blot to determine the level of Mcl-1. Western blot analysis was carried out as previously described (Wang et al., 2014 Journal of the American Society of Nephrology DOI: 10.1681/asn.2013060665). The band intensity for Mcl-1 in these samples were normalized to that of tubulin to correct for any inconsistencies in total protein in loading and processing the whole cell lysates.
To investigate the mechanism of action, Western blot analysis was carried out to test the induced degradation of USP9X substrate Mcl-1 by the compounds under the effects of protein synthesis inhibitor cycloheximide and/or proteasome inhibitor MG132. U937 cells were treated with 10 μM cycloheximide for one hour, with 10 μM MG132 for one hour, with the combination of 10 μM cycloheximide and 10 μM MG132 for one hour, and with vehicle (DMSO) for one hour, respectively, prior to the treatment with Compound 5A for 24 hrs. The U937 cells were harvested after treatment and whole cell lysates were prepared. These lysates were analyzed by Western blot to determine the abundance of Mcl-1 as well as that of tubulin as a normalization control. […] The band intensity of the Mcl-1 in cells treated with cycloheximide alone (Lane 2) was reduced relative to that for tubulin. […] Global blockade of protein synthesis by cycloheximide led to a significant decrease in the expression levels, especially for short lived Mcl-1. The retention of a reduced portion of Mcl-1 indicated the immunity of this portion to proteasomal degradation. […] In contrast, the band intensity of Mcl-1 relative to that of tubulin increased upon treatment of U937 cells with the proteasome inhibitor MG132 (Lane 4). […] Together, the results of this Example are consistent with the compounds acting on the proposed mechanism that intracellular inhibition of the deubiquitylase activity of USP9X blocks its ability to rescue USP9X substrates such as Mcl-1 from proteasomal degradation. In other aspects, by varying the concentration ratios of the compound and proteasome inhibitor for treating cells, it was possible to achieve controlled degradation of a USP9X substrate so the substrate could decline to a desirable level rather than degrade entirely.

USP9X [2] = target: T1, USP9X; assay: USP9X enzyme activity assay, ubiquitin-rhodamine110 substrate
Experimental: The inhibition property of compound Compound 1A was evaluated in assays measuring the ability of USP9X to catalyze the hydrolysis of the amide bond between the C terminal carboxylate of ubiquitin and rhodamine110 of the fluorogenic substrate ubiquitin-rhodamine 110. To the wells of a 96 well reaction plate was added 12.5 μL USP9X solution (1.3 nM) in assay buffer (100 mM NaCl, 1 mM DTT, 0.1% bovine serum albumin, 0.05% Tween 20, 50 mM Tris, pH 7.5). 12.5 μL of Compound 1A in assay buffer (4×final concentration) was added to the wells containing the USP9X solution, and the solution was gently mixed by pipetting up and down several times. The plate was sealed and incubated at room temperature for 20 minutes.
Then 25 μL of the 1 μM substrate (ubiquitin-rhodaminel10) solution was added in assay buffer. The final substrate concentration was 0.5 μM. […] The slope for the rate of change of the fluorescence was determined and plotted vs the concentration of Compound 1A.
USP9X enzyme assays were set up in a 96 well plate to assess the abilities of Compound 3A and Compound 4A to inhibit the activity of USP9X, respectively. Ubiquitin-rhodamine110 was used as the substrate and ubiquitin aldehyde was included in the assay as a positive control.
Purified recombinant USPx9 (R&D Systems) in 50 mM Tris buffer pH 7.5, 1 mM DTT, 100 mM NaCl, 0.05% Tween 20 and 0/1% BSA is used at a concentration of 0.325 nM with 0.5 μM ubiquitin-rhodamine (R&D Systems).

66 cancer cell lines = assay: ONCOLINES Profiler, whole panel; type: cell-based
Source text: The sensitivities of multiple cancer cells can be determined by screening the compounds on a cancer cell line panel, such as an ONCOLINES™ Profiler (Netherlands Translational Research Center) assayed with various tumor cell lines. For more information on ONCOLINES™ methods, see https://www.oncolines.com/oncolines/oncolines-explained-facts/. […] For example, Compound 7A inhibited the proliferation of 57 of the 66 cell lines being tested. […] “A tumor cell line sensitive to the compounds” is referred to that the proliferation of a tumor cell line, when contacted with the compounds, is inhibited by at least 50%, at least 60%, at least 70%, at least 80%, at least 85%, at least 90%, at least 91%, at least 92%, at least 93%, at least 94%, at least 95%, at least 96%, at least 97%, at least 98%, at least 99%, or 100%.
(§1) The compounds were profiled on an ONCOLINES™ Profiler (Netherlands Translational Research Center) assayed with 66 cancer cell lines to determine if they were capable of inhibiting the proliferation of these cancer cells.
(§2) To further evaluate potency of the compounds, they were compared with the USP9X inhibitor WP 1130 by screening both the compounds and WP1130 on a 66-cancer cell line panel ONCOLINES™ Profiler.

BT-549 = assay: ONCOLINES Profiler proliferation; type: cell-based, human
Source text: as §1, §2

[3] = from the slope of the 1/Δ intercept vs 1/[I] plot, read-out: KI, nM (1)
[4] = from the y intercept of the 1/Δ slope vs 1/[I] plot, read-out: KI, nM (2)
[5] = read-out: IC50 for the inhibition of USP9X activity, ubiquitin-rhodamine110 substrate
[6] = read-out: USP9X IC50 nM, Table 2

T1 sequence (Q93008 whole entry): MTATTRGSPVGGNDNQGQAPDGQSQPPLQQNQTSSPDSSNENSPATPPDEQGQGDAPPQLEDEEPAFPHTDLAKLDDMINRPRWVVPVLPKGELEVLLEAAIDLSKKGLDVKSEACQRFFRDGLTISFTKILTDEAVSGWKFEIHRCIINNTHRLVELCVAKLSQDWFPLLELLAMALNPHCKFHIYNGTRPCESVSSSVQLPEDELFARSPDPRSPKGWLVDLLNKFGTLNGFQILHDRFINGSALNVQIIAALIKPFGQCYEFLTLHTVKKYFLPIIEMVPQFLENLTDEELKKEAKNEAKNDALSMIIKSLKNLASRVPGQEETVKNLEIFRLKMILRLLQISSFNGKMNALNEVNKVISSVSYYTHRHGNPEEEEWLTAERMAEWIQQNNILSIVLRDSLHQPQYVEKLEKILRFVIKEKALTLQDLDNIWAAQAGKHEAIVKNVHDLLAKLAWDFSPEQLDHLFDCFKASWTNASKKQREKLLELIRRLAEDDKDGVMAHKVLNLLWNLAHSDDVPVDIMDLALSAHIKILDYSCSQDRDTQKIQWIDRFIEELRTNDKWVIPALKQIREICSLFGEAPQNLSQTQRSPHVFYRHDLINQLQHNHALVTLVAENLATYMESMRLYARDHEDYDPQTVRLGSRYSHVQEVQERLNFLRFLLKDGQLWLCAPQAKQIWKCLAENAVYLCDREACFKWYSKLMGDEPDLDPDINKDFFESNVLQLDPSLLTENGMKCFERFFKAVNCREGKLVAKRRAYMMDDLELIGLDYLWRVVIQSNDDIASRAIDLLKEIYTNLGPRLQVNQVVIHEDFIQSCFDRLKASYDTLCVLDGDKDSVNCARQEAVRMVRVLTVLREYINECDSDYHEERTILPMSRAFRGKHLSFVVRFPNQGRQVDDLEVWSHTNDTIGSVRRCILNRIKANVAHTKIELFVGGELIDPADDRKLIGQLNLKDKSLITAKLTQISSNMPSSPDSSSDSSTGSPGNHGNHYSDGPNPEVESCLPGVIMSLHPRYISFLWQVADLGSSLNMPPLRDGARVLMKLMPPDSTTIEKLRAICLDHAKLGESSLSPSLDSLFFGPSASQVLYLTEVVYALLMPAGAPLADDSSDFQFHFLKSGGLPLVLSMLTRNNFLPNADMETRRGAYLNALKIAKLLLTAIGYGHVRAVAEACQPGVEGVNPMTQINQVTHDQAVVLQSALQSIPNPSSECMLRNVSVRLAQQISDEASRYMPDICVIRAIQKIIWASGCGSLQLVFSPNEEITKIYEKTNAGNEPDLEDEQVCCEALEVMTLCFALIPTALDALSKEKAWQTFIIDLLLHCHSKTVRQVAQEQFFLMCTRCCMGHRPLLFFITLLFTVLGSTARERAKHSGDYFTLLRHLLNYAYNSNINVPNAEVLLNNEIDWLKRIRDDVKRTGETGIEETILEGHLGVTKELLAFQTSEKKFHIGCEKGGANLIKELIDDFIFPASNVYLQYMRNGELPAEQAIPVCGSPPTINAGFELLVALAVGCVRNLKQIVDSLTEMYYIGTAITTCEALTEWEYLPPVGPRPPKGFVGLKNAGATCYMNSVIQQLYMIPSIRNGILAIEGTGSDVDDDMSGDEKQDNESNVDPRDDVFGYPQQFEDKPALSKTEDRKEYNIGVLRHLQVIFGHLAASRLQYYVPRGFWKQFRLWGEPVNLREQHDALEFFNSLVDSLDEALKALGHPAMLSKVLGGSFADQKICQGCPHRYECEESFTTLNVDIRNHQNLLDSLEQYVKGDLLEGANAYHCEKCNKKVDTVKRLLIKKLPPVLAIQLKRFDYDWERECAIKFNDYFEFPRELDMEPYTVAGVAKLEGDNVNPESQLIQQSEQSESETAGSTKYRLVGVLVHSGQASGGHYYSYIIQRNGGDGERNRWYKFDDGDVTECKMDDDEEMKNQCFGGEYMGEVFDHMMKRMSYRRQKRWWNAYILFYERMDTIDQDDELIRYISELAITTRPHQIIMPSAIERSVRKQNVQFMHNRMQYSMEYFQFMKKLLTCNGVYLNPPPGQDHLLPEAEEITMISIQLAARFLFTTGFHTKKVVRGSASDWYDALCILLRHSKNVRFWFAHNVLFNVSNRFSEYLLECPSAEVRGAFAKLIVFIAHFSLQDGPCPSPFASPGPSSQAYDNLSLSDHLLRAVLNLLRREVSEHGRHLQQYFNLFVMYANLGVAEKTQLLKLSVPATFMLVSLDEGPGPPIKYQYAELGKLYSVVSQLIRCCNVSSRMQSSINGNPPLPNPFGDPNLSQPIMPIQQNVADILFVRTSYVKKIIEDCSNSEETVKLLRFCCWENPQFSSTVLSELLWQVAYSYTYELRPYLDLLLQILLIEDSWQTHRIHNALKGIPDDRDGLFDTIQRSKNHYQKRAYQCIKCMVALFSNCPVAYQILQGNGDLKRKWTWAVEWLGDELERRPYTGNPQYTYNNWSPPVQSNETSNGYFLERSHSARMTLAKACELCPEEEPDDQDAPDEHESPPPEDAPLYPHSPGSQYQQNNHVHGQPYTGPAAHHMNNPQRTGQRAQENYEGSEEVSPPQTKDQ

CN1CCOc2ccc(cc2)C(=O)NCc2cccc(c2)C(=O)N[C@@H](CC(C)(C)C)C(=O)Nc2ccc(cc2)CCN(C)C(=O)CC(C)(C)CC1=O [Compound 5A]
KS (USP9X [1]): 1.2 µM | VMAX RFU/min (USP9X [1]): 335 RFU/min | α (USP9X [1]): 2.3 | β (USP9X [1]): 0.78 | Ki (USP9X [1]; [3]): 6.7 nM | Ki (USP9X [1]; [4]): 24 nM | ability to induce the degradation of Mcl-1 on addition of MG132 (Mcl-1; 10 μM MG132 one hour before compound): blocked | reduction of Mcl-1 (Mcl-1; Compound 5A for 24 hrs (Lane 3)): about 50% | IC50 (USP9X [2]; [5]): 30 nM | IC50 (USP9X [2]; [6]): 30 nM

CN1CCOc2ccc(cc2)C(=O)NCc2ccc(F)c(c2)C(=O)N[C@@H](CC(C)(C)C)C(=O)Nc2ccc(cc2)CCN(C)C(=O)CC(C)(C)CC1=O [Compound 7A]
KS (USP9X [1]): 1.87 µM | VMAX RFU/min (USP9X [1]): 589 RFU/min | α (USP9X [1]): 1.85 | β (USP9X [1]): 0.72 | Ki (USP9X [1]; [3]): 9.4 nM | Ki (USP9X [1]; [4]): 10.3 nM | cancer cell lines sensitive / proliferation inhibited, of 66 (66 cancer cell lines; 66 cell lines tested): 57 | activity (66 cancer cell lines; in 3 of 66 cell lines, high Bcl-xL): inactive | fold more potent than WP 1130 (66 cancer cell lines; in 12 of 66 cell lines): about 4 fold | IC50 Ratio WP1130/Compound 7A (BT-549; BT-549): 27.0 | IC50 (BT-549; BT-549, breast ductal carcinoma): 199 nM | IC50 (BT-549; Homo sapiens, BT-549, BT-549, breast ductal carcinoma): 200 nM | decrease of normalized level of Mcl-1 (Mcl-1; 24-hour treatment, concentration from 0 to 33 μm): 50% | IC50 (USP9X [2]; [5]): 11 nM | IC50 (USP9X [2]; [6]): 11 nM
